Columns and labels:
Type in all cases: biochemical
JurBglKC603 [1] = target: T1, JurBglKC603 (Jiangella ureilytica, UniProt A0A4R4RWQ6, T2A); test: glucose release by GOPOD assay, Lineweaver-Burk; details: 50 mM sodium citrate pH 6, 40 °C, 1 h; substrate 0.2-1 mM
T1 construct: gene E1212_03180; catalytic Glu165 and Glu356
T1 sequence (A0A4R4RWQ6 1-457 T2A): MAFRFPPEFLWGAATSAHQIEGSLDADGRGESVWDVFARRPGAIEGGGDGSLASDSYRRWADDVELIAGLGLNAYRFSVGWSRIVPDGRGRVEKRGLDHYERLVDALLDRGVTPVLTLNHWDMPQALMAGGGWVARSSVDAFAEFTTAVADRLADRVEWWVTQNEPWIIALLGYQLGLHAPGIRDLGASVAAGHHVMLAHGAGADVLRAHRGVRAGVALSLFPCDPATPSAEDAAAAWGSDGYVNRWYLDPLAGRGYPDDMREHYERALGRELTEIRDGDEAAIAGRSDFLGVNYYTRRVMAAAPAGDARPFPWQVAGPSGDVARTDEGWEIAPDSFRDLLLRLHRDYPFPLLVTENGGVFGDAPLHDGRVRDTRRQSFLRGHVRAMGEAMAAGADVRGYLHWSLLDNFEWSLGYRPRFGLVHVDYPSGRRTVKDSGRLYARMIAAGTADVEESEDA
Description: glucose release by GOPOD assay, Lineweaver-Burk on JurBglKC603

JurBglKC603 [2] = target: T1, JurBglKC603; test: pNPG hydrolysis with added glucose, relative activity; details: 3 M; 4 mM pNPG, 50 mM sodium citrate pH 6, 35 °C; glucose is also the reaction product
Description: pNPG hydrolysis with added glucose, relative activity on JurBglKC603

JurBglKC603 [3] = target: T1, JurBglKC603; test: pNP release at […] nm, Lineweaver-Burk; details: 50 mM sodium citrate pH 6, 35 °C; substrate 0.1-7 mM; read-out: Kinetic parameters / Km

Which Km (JurBglKC603 [1]) does the source give for `OC[C@H]1O[C@@H](Oc2cc(O)cc(/C=C/c3ccc(O)cc3)c2)[C@H](O)[C@@H](O)[C@@H]1O` [polydatin] here?
Its Km is 4600 µM.

How did the Glucose tolerance (JurBglKC603 [2]) turn out when `OC[C@H]1OC(O)[C@H](O)[C@@H](O)[C@@H]1O` (stereo partly drawn) [glucose] was run?
Its Glucose tolerance is 58%.

Which Km (JurBglKC603 [3]) does the source give for `O=[N+]([O-])c1ccc(O[C@@H]2O[C@H](CO)[C@@H](O)[C@H](O)[C@H]2O)cc1` [pNPG, para-nitrophenyl β-D-glucopyranoside] here?
The Km was 440 µM.

From publication PMC12334443, “Biochemical Characterization of a Novel, Glucose-Tolerant β-Glucosidase from Jiangella ureilytica KC603, and Determination of Resveratrol Production Capacity from Polydatin” (Applied Biochemistry and Biotechnology, 2025)
